This note sets out measurements from patent publication US10364256B2 (GlaxoSmithKline Intellectual Property Development Limited, priority 2015, dated 2019).

By EC50 is commonly meant the concentration needed to bring the measured effect to its halfway point. As a reminder, the IC50 is the concentration that inhibits the measured activity by half. High values mean weaker potency in that assay, low ones greater potency in that assay.

Read-outs that look alike come from different tables or passages of the source.

Assay [1] has as its system NQO1 specific enzyme activity in BEAS-2B cells (marker for NRF2 activation). In words: BEAS-2B NQO1 MTT Assay. The assay is classed as cell-based. The settings on record: compound incubated 48 hours, read-out: EC50 (NQO1 specific enzyme activity induction). The gist of the method: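 BEAS-2B cells treated with compound for 48 h at 37 °C, then lysed; NQO1 activity in lysates measured kinetically by MTT reduction at A570 over 30 min. pEC50 from 3-parameter fit of ΔOD/min versus log concentration; lysate also taken for Cell Titer Glo.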

Assay [2] addresses T1, Keap1 Kelch domain (321-609) / TAMRA-labeled 16mer NRF2 peptide (ETGE motif) (Homo sapiens, UniProt Q14145).
T1 construct: the Kelch domain (321-609) of Keap1 is used
The assay is described as follows: NRF2-Keap1 FP Assay (Keap1 Kelch fluorescence polarization). The settings on record: 20 nM Keap1 (321-609), 8 nM Tamra labeled peptide. The assay is classed as binding. The gist of the method:
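Compound dilutions (3-fold) were incubated 1 hr at room temperature with 20 nM Keap1 Kelch (321-609) and 8 nM TAMRA-labeled ETGE 16mer peptide. Buffer was 50 mM Tris pH 8.0, 100 mM NaCl, 5 mM MgCl2, 1 mM DTT, 2 mM CHAPS, 0.005% BSA. Fluorescence polarization (mP) was normalized to controls and fitted with a four-parameter equation to give pIC50.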
Background: Fluorescence polarisation rises when a labelled molecule tumbles more slowly, as on binding a larger partner.

T1 sequence (Q14145 321-609): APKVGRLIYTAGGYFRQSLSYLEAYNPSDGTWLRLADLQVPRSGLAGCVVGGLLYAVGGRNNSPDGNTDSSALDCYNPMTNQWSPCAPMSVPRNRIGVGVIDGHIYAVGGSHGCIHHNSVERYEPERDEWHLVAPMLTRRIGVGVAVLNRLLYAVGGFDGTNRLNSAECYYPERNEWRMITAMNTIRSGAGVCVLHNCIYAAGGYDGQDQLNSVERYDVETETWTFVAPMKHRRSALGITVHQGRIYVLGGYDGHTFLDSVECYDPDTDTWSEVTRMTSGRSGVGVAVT

As to “1-(3′-((2-chlorocyclohexyl)methoxy)-[1,1′-biphenyl]-3-yl)-5-((1,2-trans)-2-(1-methyl-1H-1,2,3-triazol-4-yl)cyclopropyl)-1H-pyrazole-4-carboxylic acid [Example 186]”, the EC50 in assay [1] lay in the range of 10 to 100 nM. This compound also yielded a half-maximal inhibitory concentration (IC50) in assay [2] of 100 to 1000 nM.

With `Cn1cc([C@@H]2C[C@H]2c2c(C(=O)O)cnn2-c2cccc(-c3cccc(-n4ncc5c4C(C)(C)CC5)c3)n2)nn1` (racemic) [Example 251, 1-(6-(3-(6,6-Dimethyl-5,6-dihydrocyclopenta[c]pyrazol-1(4H)-yl)phenyl)pyridin-2-yl)-5-(trans-2-(1-methyl-1H-1,2,3-triazol-4-yl)cyclopropyl)-1H-pyrazole-4-carboxylic Acid], in assay [1] (Homo sapiens), the EC50 was in the range of 100 to 1000 nM. In assay [2], this compound came in with a half-inhibitory concentration (IC50) of 10 to 100 nM.

Turning to `Cn1cc([C@@H]2C[C@H]2c2c(C(=O)O)cnn2-c2cccc(-c3cccc(CN4Cc5ccccc5OC(C)(C)C4)c3)c2)nn1` (racemic) [Example 254, 1-(3′-((2,2-Dimethyl-2,3-dihydrobenzo[f][1,4]oxazepin-4(5H)-yl)methyl)-[1,1′-biphenyl]-3-yl)-5-(trans-2-(1-methyl-1H-1,2,3-triazol-4-yl)cyclopropyl)-1H-pyrazole-4-carboxylic Acid], the EC50 in assay [1] (Homo sapiens) lay within 100 to 1000 nM. This compound also registered an IC50 in assay [2] of 10 to 100 nM.

On to `Cn1cc([C@H]2C[C@@H]2c2c(C(=O)O)cnn2-c2cccc(-c3cccc(C(=O)N4CCCCC4)c3F)c2)nn1` (racemic) [Example 258, 1-(2′-Fluoro-3′-(piperidine-1-carbonyl)-[1,1′-biphenyl]-3-yl)-5-(trans-2-(1-methyl-1H-1,2,3-triazol-4-yl)cyclopropyl)-1H-pyrazole-4-carboxylic Acid], for which the EC50 in assay [1] (Homo sapiens) fell in the range of 100 to 1000 nM. Further, the half-maximal inhibitory concentration (IC50) in assay [2] was 10 to 100 nM.

As to `Cn1cc([C@H]2C[C@@H]2c2c(C(=O)O)cnn2-c2cccc(-c3cccc(C(=O)N4CCCC(C)(C)C4)c3F)c2)nn1` (racemic) [Example 259, 1-(2′-Fluoro-3′-(3,3-dimethylpiperidine-1-carbonyl)-[1,1′-biphenyl]-3-yl)-5-(trans-2-(1-methyl-1H-1,2,3-triazol-4-yl)cyclopropyl)-1H-pyrazole-4-carboxylic Acid], the EC50 in assay [1] (Homo sapiens) is 100 to 1000 nM. This compound gave a half-maximal inhibitory concentration (IC50) in assay [2] of 10 to 100 nM.

As for `Cn1cc([C@H]2C[C@@H]2c2c(C(=O)O)cnn2-c2cccc(-c3cccc(C(=O)N4CCCCCC4)c3F)c2)nn1` (racemic) [Example 260, 1-(2′-Fluoro-3′-(azepane-1-carbonyl)-[1,1′-biphenyl]-3-yl)-5-(trans-2-(1-methyl-1H-1,2,3-triazol-4-yl)cyclopropyl)-1H-pyrazole-4-carboxylic Acid], the half-maximal effective concentration (EC50) in assay [1] (Homo sapiens) was in the range of 100 to 1000 nM. In addition, the IC50 in assay [2] was 10 to 100 nM.

In the case of `CC1CC(C)CN(C(=O)c2cccc(-c3cccc(-n4ncc(C(=O)O)c4[C@@H]4C[C@H]4c4cn(C)nn4)c3)c2F)C1` (mixture of isomers) [Example 263, 1-(3′-(3,5-Dimethylpiperidine-1-carbonyl)-2′-fluoro-[1,1′-biphenyl]-3-yl)-5-(2-(1-methyl-1H-1,2,3-triazol-4-yl)cyclopropyl)-1H-pyrazole-4-carboxylic Acid], the EC50 in assay [1] (Homo sapiens) was 100 to 1000 nM. The 50% inhibitory concentration (IC50) in assay [2] was in the range of 10 to 100 nM.

For the compound `COCC1CCCCN1C(=O)c1cccc(-c2cccc(-n3ncc(C(=O)O)c3C3C[C@H]3c3cn(C)nn3)c2)c1F` (mixture of isomers) [Example 264, 1-(3′-(2-(Methoxymethyl)piperidine-1-carbonyl)-2′-fluoro-[1,1′-biphenyl]-3-yl)-5-(trans-2-(1-methyl-1H-1,2,3-triazol-4-yl)cyclopropyl)-1H-pyrazole-4-carboxylic Acid], in assay [1] (Homo sapiens), the concentration giving a half-maximal response (EC50) fell in the range of 100 to 1000 nM. The half-inhibitory concentration (IC50) in assay [2] lay within 10 to 100 nM.

As for `CC(C)CN(C)C(=O)c1cccc(-c2cccc(-n3ncc(C(=O)O)c3[C@@H]3C[C@H]3c3cn(C)nn3)c2)c1F` (racemic) [Example 266, 1-(2′-Fluoro-3′(isobutyl(methyl)carbamoyl)-[1,1′-biphenyl]-3-yl)-5-(trans-2-(1-methyl-1H-1,2,3-triazol-4-yl)cyclopropyl)-1H-pyrazole-4-carboxylic Acid], the EC50 in assay [1] (Homo sapiens) was 100 to 1000 nM. The compound also displayed an IC50 in assay [2] of 10 to 100 nM.

On to `CC(Oc1cccc(-c2cccc(-n3ncc(C(=O)O)c3[C@@H]3C[C@H]3c3cn(C)nn3)n2)c1)C1CCCCC1` (relative stereo) [Example 249, 1-(6-(3-(1-Cyclohexylethoxy)phenyl)pyridin-2-yl)-5-(trans-2-(1-methyl-1H-1,2,3-triazol-4-yl)cyclopropyl)-1H-pyrazole-4-carboxylic Acid], for which the concentration for a half-maximal effect (EC50) in assay [1] (Homo sapiens) was 1 to 10 nM. Besides, the IC50 in assay [2] lay in the range of 10 to 100 nM.

In the case of `CCC1Cc2ccccc2CN(Cc2cccc(-c3cccc(-n4ncc(C(=O)O)c4[C@@H]4C[C@H]4c4cn(C)nn4)c3)c2)C1` (relative stereo) [Example 252, 1-(3′-((4-Ethyl-4,5-dihydro-1H-benzo[c]azepin-2(3H)-yl)methyl)-[1,1′-biphenyl]-3-yl)-5-(trans-2-(1-methyl-1H-1,2,3-triazol-4-yl)cyclopropyl)-1H-pyrazole-4-carboxylic Acid], in assay [1] (Homo sapiens), the EC50 lay within 100 to 1000 nM. Moreover, the IC50 in assay [2] fell in the range of 10 to 100 nM.

As to `C[C@@H]1CCC[C@H](C)N1C(=O)c1cccc(-c2cccc(-n3ncc(C(=O)O)c3[C@H]3C[C@@H]3c3cn(C)nn3)c2)c1F` (single isomer, unassigned) [Example 261], the EC50 in assay [1] (Homo sapiens) is 10 to 100 nM. Besides, the half-maximal inhibitory concentration (IC50) in assay [2] lay within 10 to 100 nM.

Regarding `C[C@@H]1CCC[C@H](C)N1C(=O)c1cccc(-c2cccc(-n3ncc(C(=O)O)c3[C@@H]3C[C@H]3c3cn(C)nn3)c2)c1F` (single isomer, unassigned) [Example 262], the half-maximal effective concentration (EC50) in assay [1] (Homo sapiens) lay in the range of 10 to 100 nM. This compound also gave a 50% inhibitory concentration (IC50) in assay [2] of 10 to 100 nM.

For the compound `CCCC1CCCCN1C(=O)c1cccc(-c2cccc(-n3ncc(C(=O)O)c3C3CC3)c2)c1F` (stereo in doubt) [Example 54d, 5-Cyclopropyl-1-{3-[2-fluoro-3-((2R)-2-propylpiperidine-1-carbonyl)phenyl]phenyl}-1H-pyrazole-4-carboxylic Acid], the EC50 in assay [1] (Homo sapiens) lay within 100 to 1000 nM. Besides, the IC50 in assay [2] was 10 to 100 nM.

On to `O=C(O)c1cnn(-c2cccc(-c3cccc(C(=O)N(CC4CC4)CC4CC4)c3F)c2)c1C1CC1` [Example 8, 1-(3-{3-[Bis(cyclopropylmethyl)carbamoyl]-2-fluorophenyl}phenyl)-5-cyclopropyl-1H-pyrazole-4-carboxylic Acid], for which the 50% effective concentration (EC50) in assay [1] (Homo sapiens) is 100 to 1000 nM. The compound further had an IC50 in assay [2] of 10 to 100 nM.

With `CC(C)CC1CCCCN1C(=O)c1cccc(-c2cccc(-n3ncc(C(=O)O)c3C3CC3)c2)c1F` (stereo not shown) [Example 28, 5-Cyclopropyl-1-(3-{2-fluoro-3-[2-(2-methylpropyl)piperidine-1-carbonyl]phenyl}phenyl)-1H-pyrazole-4-carboxylic Acid], the EC50 in assay [1] (Homo sapiens) is 100 to 1000 nM. In assay [2], this compound yielded a 50% inhibitory concentration (IC50) of 10 to 100 nM.

Regarding `CC1CCCN(C(=O)c2cccc(-c3cccc(-n4ncc(C(=O)O)c4C4CC4)c3)c2F)CC1` (stereo not shown) [Example 29, 5-Cyclopropyl-1-{3-[2-fluoro-3-(4-methylazepane-1-carbonyl)phenyl]phenyl}-1H-pyrazole-4-carboxylic Acid], the EC50 in assay [1] (Homo sapiens) was 100 to 1000 nM. This compound returned an IC50 in assay [2] of 10 to 100 nM.

As for `CC1CCC(C)N(C(=O)c2cccc(-c3cccc(-n4ncc(C(=O)O)c4C4CC4)c3)c2F)C1` (stereo not shown) [Example 30, 5-Cyclopropyl-1-{3-[3-(2,5-dimethylpiperidine-1-carbonyl)-2-fluorophenyl]phenyl}-1H-pyrazole-4-carboxylic Acid], in assay [1] (Homo sapiens), the concentration giving a half-maximal response (EC50) is 100 to 1000 nM. In assay [2], this compound yielded an IC50 of 10 to 100 nM.

Turning to `O=C(O)c1cnn(-c2cccc(-c3cccc(C(=O)N4CCCC5CCCCC54)c3F)c2)c1C1CC1` (stereo not shown) [Example 31, 5-Cyclopropyl-1-{3-[3-(decahydroquinoline-1-carbonyl)-2-fluorophenyl]phenyl}-1H-pyrazole-4-carboxylic Acid], the EC50 in assay [1] (Homo sapiens) is 100 to 1000 nM. The IC50 in assay [2] was in the range of 100 to 1000 nM.

As to `O=C(O)c1cnn(-c2cccc(-c3cccc(C(=O)N4CCCCC4C4CCCC4)c3F)c2)c1C1CC1` (stereo not shown) [Example 33, 1-{3-[3-(2-Cyclopentylpiperidine-1-carbonyl)-2-fluorophenyl]phenyl}-5-cyclopropyl-1H-pyrazole-4-carboxylic Acid], the EC50 in assay [1] (Homo sapiens) was in the range of 100 to 1000 nM. In assay [2], this compound registered a half-maximal inhibitory concentration (IC50) of 10 to 100 nM.

Regarding `O=C(O)c1cnn(-c2cccc(-c3cccc(C(=O)N4C5CCCC4CCC5)c3F)c2)c1C1CC1` [Example 34, 1-[3-(3-{9-azabicyclo[3.3.1]nonane-9-carbonyl}-2-fluorophenyl)phenyl]-5-cyclopropyl-1H-pyrazole-4-carboxylic Acid], the concentration giving a half-maximal response (EC50) in assay [1] (Homo sapiens) was 100 to 1000 nM. For the same compound, in assay [2], the IC50 was in the range of 10 to 100 nM.

For the compound `O=C(O)c1cnn(-c2cccc(-c3cccc(C(=O)N4CCCC5(CCCC5)C4)c3F)c2)c1C1CC1` [Example 35, 1-[3-(3-{7-Azaspiro[4.5]decane-7-carbonyl}-2-fluorophenyl)phenyl]-5-cyclopropyl-1H-pyrazole-4-carboxylic Acid], the 50% effective concentration (EC50) in assay [1] (Homo sapiens) lay in the range of 100 to 1000 nM. In assay [2], this compound yielded an IC50 of 10 to 100 nM.

Turning to `O=C(O)c1cnn(-c2cccc(-c3cccc(C(=O)N4CCCCC4CCC(F)(F)F)c3F)c2)c1C1CC1` (stereo not shown) [Example 38, 5-Cyclopropyl-1-(3-{2-fluoro-3-[2-(3,3,3-trifluoropropyl)piperidine-1-carbonyl]phenyl}phenyl)-1H-pyrazole-4-carboxylic Acid], the EC50 in assay [1] (Homo sapiens) fell in the range of 100 to 1000 nM. In addition, the IC50 in assay [2] lay in the range of 10 to 100 nM.
